“And” between values parts separate entries of the source, which are not always exact repeats. Equal values may be shown once.
How the values were obtained:
H441 cells = test: LD50 responses of NSCLC cell lines treated with β-Lap; type: cell-based, human; conditions: NQO1 enzyme activities ≧50 units, β-Lap 2 h, 7 days later
Description: (§1) LD50 responses were plotted as a function of NQO1 enzymatic levels. The notations, *1/*1 and *2/*2 represent the NQO1 status of each cell line as homozygous wild type (*1/*1) or homozygous polymorphic (*2/*2) genotypes. […] In (b), Kaplan-Meier survival curve of mice bearing orthotopic lung tumors implanted with *1/*1 A549 cells. Mice were treated intravenously (5 doses every other day) with β-lap-HPβ-CD or vehicle alone (HPβ-CD).

A549 cells = test: as above; type: cell-based, human; conditions: NQO1 enzyme activities ≧50 units, β-Lap 2 h, 7 days later
Description: as §1

HCC1937 = test system: HCC1937; parameters: LD50 β-Lap + CAT: unit not given beside the values
Description: Cells were cultured and treated as described above. […] Experiments were repeated at least three times, and data expressed as relative survival (treated/control×100%) means±SEM. […] The multi-target model was used to describe the shape of relative survival curves. In this model, a final slope (D0) resulting from multiple-event killing and quasithreshold (Dq) doses were used to represent the size or width of the shoulder of the curve. The extrapolation number (n) is also a measure of the width of the shoulder. The three parameters, n, Do, and Dq were related by the expression: loge n=Dq/Do.
Cells were treated with β-lap with or without dicoumarol for 2 h. […] Data were expressed as relative survival (treated/control×100%). Experiments were repeated at least three times, and data expressed as relative survival means±SEM. […] Human mammary epithelial cells were plated in 48 well dishes in growth media containing a 50:50 mixture of MGEM/DME:F12 medium supplemented with insulin, human epidermal growth factor and hydrocortisone.

H596/NSCLC = test: β-lapachone lethality in NQO1 genotyped cancer cells; type: cell-based, human; conditions: NQO1 genotype *2/*2, 2 h exposure
Description: as §1
(§2) Cell lines, mostly from a 5-panel nonsmall cell lung cancer panel from the UT Southwestern SPORE, were assessed for NQO1 polymorphism status and then monitored for NQO1 enzyme assays using β-lapachone or the standard menadione substrates. […] NQO1*2/*2 and *3/*3 polymorphisms were detected from NQO1 *1/*1 wild-type sequences by PCR-RFLP. Genomic DNA was extracted from the cells using Qiagen spin columns. Using previously described oligonucleotide primers, PCR products underwent gel electrophoresis. Final genotyping was determined based on the size and pattern of separated bands diagnostic for *1/*1 (wild-type), or polymorphic *2/*2 or *3/*3 NQO1 polymorphisms.

H2882/NSCLC = test: as above; type: cell-based, human
Description: as §1, §2

NQO1+ human cancer cells = conditions: cited from earlier work
PC-3 cells = test: Alkaline comet assay; type: cell-based, human; conditions: PC-3 cells after exposure to 4 μM β-lap
Description: DNA lesions, including total base damage, DSBs and SSBs, versus DSBs were assessed using single-cell gel electrophoretic comet assays under alkaline or neutral conditions, respectively (TREVIGEN, Gaithersburg, Md.). Slides were stained with SYBR Green and visualized using a Nikon Eclipse TE2000-E fluorescence microscope (Melville, N.Y.). Digital photomicrographs were taken and comet tail lengths quantified using NIH Image J software. Each datum point represents an average of 100 cells±SE, and data are representative of experiments performed in triplicate.

NQO1 [1] = biological target: T1, NQO1 (Homo sapiens, UniProt P15559); test: NADH recycling assay (NQO1 futile cycling); type: biochemical; parameters: S9 Supernatants were prepared from cells in mid-log to late log phase growth; endogenous in cells; host or cells: cancer cell lines, mostly from a non-small cell lung cancer panel (e.g. Calu-3); S9 supernatants; conditions: in 5 min, NQO1 futile cycle
Description: Assays were performed with either purified NQO1 or S9 extracts from MCF-7:WS8, or other cancer or normal cells. For the assay using purified NQO1, […] of recombinant human NQO1 was mixed with 200-500 μM NADH in 50 mM potassium phosphate buffer, pH 7.0.

NQO1 [2] = biological target: T1, NQO1; test: NQO1 enzyme assays using β-lapachone or the standard menadione substrates; type: biochemical; parameters: S9 Supernatants were prepared from cells in mid-log to late log phase growth; endogenous in cells; host or cells: cancer cell lines, mostly from a non-small cell lung cancer panel; S9 supernatants; conditions: β-lapachone as substrate, H1993 *1/*1
Description: S9 Supernatants were prepared from cells in mid-log to late log phase growth. […] The cell suspensions were sonicated on ice four times, using 10-s pulses, and then centrifuged at 14,000×g for 20 min. The S9 supernatants were aliquoted into microcentrifuge tubes and stored at −80° C. until used. A 1× protease inhibitor cocktail was added to prevent enzyme activity degradation. […] Menadione was used as the electron acceptor. NADH was used as the electron donor.
NQO1 activity was measured using NADH (200 μM) as the immediate electron donor and menadione (10 μM) as the intermediate electron acceptor. […] Biochem. Biophys. […] NADH: cytochrome b5 reductase was measured using NADH (200 μM) as the electron donor, and […] was measured using NADPH (200 μM) as electron donor (45) in a Beckman DU 640 spectrophotometer (Beckman Coulter, Fullerton, Calif.). Reactions were carried out at 37° C. and were initiated by the addition of S9 supernatants. Varying amounts of supernatants, from 10 to 40 μL, were used to ensure linearity of rates with protein concentration. […] Results shown are the average enzyme activity for three separate cell extractions±S.D. or both values from duplicate experiments.
as §2

PARP-1 in PC-3 cells = test: PAR formation (PARP-1 hyperactivation), Western blot; type: cell-based, human
Description: Whole-cell extracts were prepared, proteins separated by SDSPAGE, and Western blots developed using SuperSignal® West Pico Chemiluminescent substrate (Thermo Scientific, Rockford, Ill.), and exposed using Autoradiography Film (Denville Scientific Inc., Metuchen, N.J.). Both PAR (BD Pharmingen, San Jose, Calif.) and γH2AX (Upstate, Billerica, Mass.) antibodies were used at 1:2000 and 1:1000 dilutions, respectively. […] or α-tubulin levels were used as loading control.

T1 sequence (P15559 whole entry): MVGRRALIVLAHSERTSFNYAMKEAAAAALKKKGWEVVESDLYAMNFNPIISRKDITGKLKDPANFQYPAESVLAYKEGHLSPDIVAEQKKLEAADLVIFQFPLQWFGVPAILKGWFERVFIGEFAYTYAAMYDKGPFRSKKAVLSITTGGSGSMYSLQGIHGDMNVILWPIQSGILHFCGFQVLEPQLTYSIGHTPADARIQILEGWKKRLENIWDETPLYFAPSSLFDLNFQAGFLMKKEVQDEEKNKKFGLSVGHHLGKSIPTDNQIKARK

CC1(C)CCC2=C(O1)c1ccccc1C(=O)C2=O [β-Lap, 3,4-dihydro-2,2-dimethyl-2H-naphtho[1,2-b]pyran-5,6-dione]
LD50 (H441 cells): 1.5 µM
LD50 (A549 cells): 2.5 µM
LD50 β-Lap + CAT (HCC1937): 3.4
LD50 p-Lap + DIC (HCC1937; human): 5.0
LD50 β-Lap (HCC1937; human): 2.2
β-Lap Lethality LD50 (H596/NSCLC): >20 µM and >10 µM
LD50 + DIC (H2882/NSCLC; *2/*2, 2 h, + dicoumarol (40 μM)): >40 µM
β-Lap Lethality LD50 (H2882/NSCLC; NQO1 genotype *2/*2, 2 h exposure): >20 µM
Lethality (NQO1+ human cancer cells; 1-2 μM treatments for 2-4 h): not lethal
Cell death responses (TUNEL staining) (NQO1+ human cancer cells; 2-3 μM for 2-4 h): > 90%
IR dose equivalent to DNA lesions by alkaline assays (PC-3 cells): 20 Gy
NAD(P)H used per mole of β-lap (NQO1 [1]): > 60 mol
NQO1 activity, β-Lap (NQO1 [2]): 1940 ± 12 nmol/min/µg
PAR formation after combined treatment (PARP-1 in PC-3 cells; 1 Gy+3 μM β-lap, PC-3 cells, at 60 mins, no apparent levels after each agent alone): dramatic PAR formation
Time to significant accumulation of PAR (PARP-1 in PC-3 cells; β-lap-exposed PC-3 cells, blocked by dicoumarol): 10 to 20 min

Source: patent US9469878B2, “Methods of treating cancer comprising targeting NQO1” (The Board of Regents of the University of Texas System, priority 2010, dated 2016)
